Patent US20240300902A1, “NOVEL TRANSGLUTAMINASE 2 INHIBITOR AND USE THEREOF” (MD BIOLAB CO., LTD., priority 2021, published 2024)
Read-outs that look alike come from different tables or passages of the source.

Key:
[1] = test system: ACHN cancer cell population; assay: Sulforhodamine B (SRB) assay; format: cell-based, Human; details: for GI50 / SRB measurement (percentage decrease in the control value of SRB): 48 hours; for GI50: read-out: GI50 (50% growth inhibition); for SRB measurement (percentage decrease in the control value of SRB): concentration of 10^−5 M; for decrease in cell counts: concentrations 10^−6 M or lower
Method: Cells (10,000 cells/well, 100 μL) were incubated in a 96-well microtiter plate. After 24 hours of the incubation, drug (100 μL) was added to each of the wells, and the culture was further incubated at 37° C. for 48 hours. The cells were then fixed in TCA (50 μL per well). The plates were incubated at 4° C. for a minimum of 1 hour or a maximum of 3 hours. The liquid was removed from the plates, and then the plate was washed five times with water and then dried at room temperature (RT) for about 12-24 hours. The fixed cells were stained with 100 μL SRB for 5 minutes at room temperature. After the staining, the plate was washed three times with 1% (w/v) glacial acetic acid and dried at room temperature for about 12-24 hours. Next, the SRB was then dissolved in 10 mM Trizma base, and the absorbance was measured at 515 nm. The effect of the drug was expressed as GI50 (50% growth inhibition).
Specifically, each of the LDD3732, LDD3922, and LDD3959 in concentrations of 10^−9, 10^−8, 10^−7, 10^−6, and 10^−5 M were tested, and the percentage decrease in the control value of SRB was measured using an ACHN cancer cell population.

[2] = target: T1, guinea pig liver-originated transglutaminase 2 (Cavia cutleri, UniProt P08587); assay: In vitro transglutaminase 2 assay (1), [1,4-14C] putrescine incorporation into succinylated casein; format: biochemical; details: for mean value (scintillation counts) / fold values relative to the mean value of the control: 2 μM; for mean value (scintillation counts): negative control 129.0, control 4147.5, FIG. 1; for fold values relative to the mean value of the control: standard deviations 0.02 and 0.01; for TGase2 enzyme activity inhibitory effect compared with streptonigrin (KN383, positive control): same dose (2 μM)
T1 construct: 1 mU of guinea pig liver-originated transglutaminase 2 (Sigma, St. Louis, MO, USA); purchased Sigma; host or cells: guinea pig liver
T1 sequence (P08587 1-690): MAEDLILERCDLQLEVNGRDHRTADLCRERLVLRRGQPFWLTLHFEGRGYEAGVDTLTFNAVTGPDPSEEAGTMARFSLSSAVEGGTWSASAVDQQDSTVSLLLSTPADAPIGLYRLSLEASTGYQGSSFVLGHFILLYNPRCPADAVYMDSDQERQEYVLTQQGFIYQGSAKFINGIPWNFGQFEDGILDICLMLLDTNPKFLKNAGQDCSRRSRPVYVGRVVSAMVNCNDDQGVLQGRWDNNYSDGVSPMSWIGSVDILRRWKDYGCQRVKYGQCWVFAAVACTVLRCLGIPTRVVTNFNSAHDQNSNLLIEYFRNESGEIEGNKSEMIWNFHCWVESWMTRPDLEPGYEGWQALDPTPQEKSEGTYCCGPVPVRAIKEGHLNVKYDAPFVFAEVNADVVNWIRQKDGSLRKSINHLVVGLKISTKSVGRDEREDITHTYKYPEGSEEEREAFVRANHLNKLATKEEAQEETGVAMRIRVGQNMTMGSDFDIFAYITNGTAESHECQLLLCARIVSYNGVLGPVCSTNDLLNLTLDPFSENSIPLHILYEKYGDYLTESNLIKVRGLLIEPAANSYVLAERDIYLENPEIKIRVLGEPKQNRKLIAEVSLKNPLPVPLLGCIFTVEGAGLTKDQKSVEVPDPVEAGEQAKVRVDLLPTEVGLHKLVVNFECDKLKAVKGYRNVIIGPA
Method: Incorporation of [1,4-14C] putrescine into succinylated casein was measured to determine the inhibitory effect of each compound on the activity of transglutaminase 2 (TGase 2). 1 mU of guinea pig liver-originated transglutaminase 2 (Sigma, St. Louis, MO, USA) was preincubated with various concentrations of GK13 or GK921 in a 0.1 mL reaction buffer with or without 10 mM CaCl2 for 10 minutes, and 0.4 mL of a substrate solution containing 2% (w/v) succinylated casein and 100 nCi of [1,4-14C] putrescine. After incubation at 37° C. for 1 hour, 4 mL of cold (4° C.) 7.5% (w/v) trichloroacetic acid (TCA) was added to terminate the reaction. The TCA-insoluble precipitate was recovered with a GF/A-grade glass filter (Millipore, Billerica, MA, USA), washed with cold 5% (w/v) TCA, dried, and assessed with a scintillation counter (Beckman Coulter, Brea, CA, USA) to evaluate radiolabel binding. Transglutaminase 2 which was pre-incubated only with a buffer was used as a positive control. The scintillation counts were compared between the example and the positive control, and IC50 values were determined through the logistic linear regression method. The presented data were the mean values of three independent experiments. In this experimental example and the following experimental example, Streptonigrin (described as KN383 in each figure of the drawing), which is an existing transglutaminase 2 inhibitor, was used as a positive control.

p53 = assay: P53 rescue test using western blotting; format: cell-based; details: low to high concentration, cancer cell lines
Method: Whole cell lysates were prepared using a radioimmunoprecipitation assay (RIPA) buffer (150 mM sodium chloride, 1.0% (w/v) IGEPAL® CA-630 (NP-40), 0.5% (w/v) sodium deoxycholate, 0.1% (w/v) sodium dodecyl sulfate (SDS), a protease inhibitor cocktail, and 50 mM Tris-HCl (pH 8.0) containing a phosphatase inhibitor cocktail. Protein assays were performed through Bradford protein assay (Thermo Scientific, Waltham, MA, USA) to normalize protein expression. The proteins were resolved by SDS-PAGE and transferred to polyvinylidene difluoride (PVDF) membranes (Merck Millipore, Burlington, MA, USA). The membranes were blocked with 5% (w/v) BSA for 1 hour at room temperature and incubated overnight at 4° C. with labeled antibodies. Membranes were washed in TBS-T for 1 hour at room temperature and incubated together with a horseradish peroxidase (HRP)-bound secondary antibody for 1 hour at room temperature. Finally, the membranes were washed in TBS-T for 1 hour at room temperature and developed with enhanced chemiluminescence.

MCF7 cells = assay: Cell viability in breast cancer cell lines according to concentration; format: cell-based; details: MCF7, no expression of transglutaminase 2, 72 hours
Method: First breast cancer cells (MDA-MB-453, HCC-1806, HCC-1937: 10,000 cells/well, 100 μl) and second breast cancer cells (MDA-MB-231, MCF-7: 10,000 cells/well, 100 μl) were cultured in 96-well microplates.
After 24 hours, LDD3959 […] of various concentrations were added to each well, using a serum-free cell culture medium, and a reaction was allowed to proceed for 2 hours at 37° C. in the presence of 5% CO2. The culture medium was replaced with a culture medium containing 10% FSB, and a reaction was performed for 72 hours.
The existing culture medium was removed, and a new culture medium containing a water soluble tetrazolium salt was added. After that, the plate underwent a reaction at 37° C. in the presence of 5% CO2 for a duration in the range of 1 hour to 3 hours, and then absorbance was measured at 450 nm.

Row | SMILES | GI50 ([1]; Homo sapiens) [µM] | SRB measurement (percentage decrease in the control value of SRB) [1] | decrease in cell counts [1] | mean value (scintillation counts) [2] | fold values relative to the mean value of the control [2] | TGase2 enzyme activity inhibitory effect compared with streptonigrin (KN383, positive control) [2] | p53 rescue effect (Western blot band of p53) (p53) | GI50 [1] [µM] | effective concentration for apoptosis (MCF7 cells)
1 | O=C1C(Cl)=C(Cl)C(=O)c2[nH]c(-c3ccc(Br)cc3)nc21 [LDD3922, 2-(4-bromophenyl)-5,6-dichloro-1H-benzo[d]imidazole-4,7-dione] | 5 | 52.25 | no significant decrease in cell counts | 352.5 | 0.08 | two-fold or greater stronger TGase2 enzyme activity inhibitory effects than the control | dose-dependent p53 rescue effects |  | 
2 | O=C1C(Cl)=C(Cl)C(=O)c2[nH]c(-c3ccccc3)nc21 [LDD3732, 5,6-dichloro-2-phenyl-1H-benzo[d]imidazole-4.7-dione] |  | −41.43 | no significant decrease in cell counts | 477.5 | 0.12 | two-fold or greater stronger TGase2 enzyme activity inhibitory effects than the control | dose-dependent p53 rescue effects | 2.2 | 
3 | COC1=C(N)C(=O)c2nc(-c3nc(C(=O)O)c(C)c(-c4ccc(OC)c(OC)c4O)c3N)ccc2C1=O [streptonigrin, Streptonigrin, reference compound] |  |  |  | 1275.5 |  |  |  |  | low
